This passage reports Ki results from BindingDB's records for doi:10.1021/jm020889p (2002).

The Ki is a measure of affinity in units of concentration, obtained from inhibition or displacement.

Experiment [1] addresses Sigma non-opioid intracellular receptor 1 (Cavia porcellus) (UniProt Q60492). Briefly: Ability to displace [3H](+)-pentazocine from Sigma opioid receptor type 1 of guinea pig brain.
Experiment [2] concerns the target Sigma-2 receptor (TMEM97) (Rattus norvegicus). Kind of experiment: Ability to displace [3H]ditolylguanidine in the presence of 100 nM (+)-pentazocine from Sigma opioid receptor type 2 of rat liver.

Chain of Sigma non-opioid intracellular receptor 1 (Cavia porcellus) (Q60492 whole entry, looked up): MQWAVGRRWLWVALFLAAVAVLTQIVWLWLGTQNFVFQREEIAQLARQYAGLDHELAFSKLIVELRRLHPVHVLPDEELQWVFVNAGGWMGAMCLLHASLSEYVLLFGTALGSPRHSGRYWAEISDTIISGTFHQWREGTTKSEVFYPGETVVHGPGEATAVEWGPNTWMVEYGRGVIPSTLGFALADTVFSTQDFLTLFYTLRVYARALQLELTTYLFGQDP

With `CCOC(=O)CC1Cc2ccccc2C2(CCN(Cc3ccccc3)CC2)O1` (configuration not stated) [ethyl 2-[1'-benzylspiro[3,4-dihydro-1H-isochromene-1,4'-(hexahydropyridine)]-3-yl]acetate], the Ki in experiment [1] stood at 183 nM; in experiment [2] it was 22700 nM.
Turning to `N#CC1OC2(CCN(Cc3ccccc3)CC2)c2ccccc21` (configuration not stated) [1'-benzylspiro[1,3-dihydroisobenzofuran-1,4'-(hexahydropyridine)]-3-carbonitrile], in experiment [1], the affinity corresponds to a Ki of 2.18 nM.
With `N#CCC1Cc2ccccc2C2(CCN(Cc3ccccc3)CC2)O1` (configuration not stated) [1'-benzylspiro[3,4-dihydro-1H-isochromene-1,4'-(hexahydropyridine)]-3-ylmethyl cyanide], the Ki worked out at 15.9 nM in experiment [1] and 4700 nM in experiment [2].
Taken in the same sequence, the figures for `O=CCC1Cc2ccccc2C2(CCN(Cc3ccccc3)CC2)O1` (configuration not stated) [2-[1'-benzylspiro[3,4-dihydro-1H-isochromene-1,4'-(hexahydropyridine)]-3-yl]acetaldehyde] were 55.1 nM and 9910 nM.
The like results for `CCOC(=O)C1OC2(CCN(Cc3ccccc3)CC2)c2ccccc21` (configuration not stated) [ethyl 1'-benzylspiro[1,3-dihydroisobenzofuran-1,4'-(hexahydropyridine)]-3-carboxylate] were, in that order, 8.95 nM and 7130 nM.
Regarding `OCC1Cc2ccccc2C2(CCN(Cc3ccccc3)CC2)O1` (configuration not stated) [1'-benzylspiro[3,4-dihydro-1H-isochromene-1,4'-(hexahydropyridine)]-3-ylmethanol], the Ki in experiment [1] worked out at 7.16 nM; in experiment [2], 2090 nM.
Taken in the same sequence, the figures for `OCCC1Cc2ccccc2C2(CCN(Cc3ccccc3)CC2)O1` (configuration not stated) [2-[1'-benzylspiro[3,4-dihydro-1H-isochromene-1,4'-(hexahydropyridine)]-3-yl]-1-ethanol] were 12.7 nM and 8460 nM.
As to `CNCCC1Cc2ccccc2C2(CCN(Cc3ccccc3)CC2)O1` (configuration not stated) [1N-methyl-2-[1'-benzylspiro[3,4-dihydro-1H-isochromene-1,4'-(hexahydropyridine)]-3-yl]-1-ethanamine], the results for the inhibition constant Ki in experiment [1] and in experiment [2] were 148 nM and 4360 nM, respectively.
Take `CNC(=O)CC1Cc2ccccc2C2(CCN(Cc3ccccc3)CC2)O1` (configuration not stated) [1N-methyl-2-[1'-benzylspiro[3,4-dihydro-1H-isochromene-1,4'-(hexahydropyridine)]-3-yl]acetamide]: the Ki in experiment [1] came out at 170 nM.
On to `CCOC(=O)CC1OC2(CCN(Cc3ccccc3)CC2)c2ccccc21` (configuration not stated) [ethyl 2-[1'-benzylspiro[1,3-dihydroisobenzofuran-1,4'-(hexahydropyridine)]-3-yl]acetate], for which the Ki worked out at 15.1 nM in experiment [1] and 6770 nM in experiment [2].
Taken in the same sequence, the figures for `CCOC(=O)C1Cc2ccccc2C2(CCN(Cc3ccccc3)CC2)O1` (configuration not stated) [ethyl 1'-benzylspiro[3,4-dihydro-1H-isochromene-1,4'-(hexahydropyridine)]-3-carboxylate] were 9.33 nM and 10500 nM.
`N#CCC1OC2(CCN(Cc3ccccc3)CC2)c2ccccc21` (configuration not stated) [1'-benzylspiro[1,3-dihydroisobenzofuran-1,4'-(hexahydropyridine)]-3-ylmethyl cyanide]: the Ki came to 2.16 nM in experiment [1] and 1660 nM in experiment [2].
